Experimental data published in ChEMBL document CHEMBL3885861, “Open TG-GATES”.

Species on record: Rattus norvegicus
Experiment: Open TG-GATES - Regimen: Daily Repeat
Type: toxicity, organism-based, Sprague-Dawley
Parameters: regimen Daily Repeat, gender Male, age 6 weeks
Conditions: in vivo, po, 10 mg/kg, route gavage, dose level Middle; for APTT / Bas / Eos / Fbg / Hb / Ht / Lym / MCH / MCHC / MCV / Mono / Neu / PT / Plat / RBC / Ret / WBC: tissue Blood; for KIDNEY_L / KIDNEY_R / KIDNEY_TOTAL: tissue Kidney; for LIVER: tissue Liver; for A/G / ALP / ALT / AST / BUN / CRE / Ca / Cl / DBIL / GLC / IP / K / LDH / Na / PL / RALB / TBIL / TC / TG / TP / gamma-GTP: tissue Plasma

Molecule `CN(C)CCC(c1ccc(Cl)cc1)c1ccccn1` (configuration not stated) [CHLORPHENIRAMINE] has a TERMINAL_BW (72 h, time 3 day) of 226.7 g, an APTT (72 h, time 3 day) of 18.1 s and a Bas (72 h, time 3 day) of 0%. It also gave an Eos (72 h, time 3 day) of 1.2%, a Fbg (72 h, time 3 day) of 297.4 mg/dL and a Hb (72 h, time 3 day) of 13.1 g/dL. The Ht (72 h, time 3 day) was 40.4%, the Lym (72 h, time 3 day) was 77.4% and the MCH (72 h, time 3 day) was 20.7 pg. The MCHC (72 h, time 3 day) was 32.3%, the MCV (72 h, time 3 day) was 63.9 fL and the Mono (72 h, time 3 day) was 2.6%. For the same molecule, the Neu (72 h, time 3 day) was 18.6%, the PT (72 h, time 3 day) was 14.8 s and the Plat (72 h, time 3 day) was 123.1 x10_4/uL. For the same molecule, the RBC (72 h, time 3 day) was 631.8 x10_4/ul, the Ret (72 h, time 3 day) was 6.1% and the WBC (72 h, time 3 day) was 88.3 x10_2/uL. The KIDNEY_L (72 h, time 3 day) was 1 g, the KIDNEY_R (72 h, time 3 day) was 0.9 g and the KIDNEY_TOTAL (72 h, time 3 day) was 1.9 g. The LIVER (72 h, time 3 day) was 10.2 g, the A/G (72 h, time 3 day) was 0.9 and the ALP (72 h, time 3 day) was 1653.8 IU/L. It also gave an ALT (72 h, time 3 day) of 38.8 IU/L, an AST (72 h, time 3 day) of 67.8 IU/L and a BUN (72 h, time 3 day) of 14.4 mg/dL. It also gave a CRE (72 h, time 3 day) of 0.2 mg/dL, a Ca (72 h, time 3 day) of 10.4 mg/dL and a Cl (72 h, time 3 day) of 107.2 meq/L. For the same molecule, the DBIL (72 h, time 3 day) was 0.016 mg/dL, the GLC (72 h, time 3 day) was 184.6 mg/dL and the IP (72 h, time 3 day) was 7.4 mg/dL. For the same molecule, the K (72 h, time 3 day) was 4.5 meq/L, the LDH (72 h, time 3 day) was 94.6 IU/L and the Na (72 h, time 3 day) was 141.6 meq/L. It also gave a PL (72 h, time 3 day) of 147.8 mg/dL, an RALB (72 h, time 3 day) of 2.6 g/dL and a TBIL (72 h, time 3 day) of 0.038 mg/dL. It also gave a TC (72 h, time 3 day) of 82 mg/dL, a TG (72 h, time 3 day) of 76.2 mg/dL and a TP (72 h, time 3 day) of 5.6 g/dL. For the same molecule, the gamma-GTP (72 h, time 3 day) was 1.4 IU/L, the TERMINAL_BW ([…], time 7 day) was 266.4 g and the TERMINAL_BW ([…], time 14 day) was 329 g. For the same molecule, the TERMINAL_BW ([…], time 28 day) was 411.3 g, the APTT ([…], time 7 day) was 22.1 s and the Bas ([…], time 7 day) was 0%. For the same molecule, the Eos ([…], time 7 day) was 0.8%, the Fbg ([…], time 7 day) was 297.2 mg/dL and the Hb ([…], time 7 day) was 13.6 g/dL. For the same molecule, the Ht ([…], time 7 day) was 41%, the Lym ([…], time 7 day) was 77% and the MCH ([…], time 7 day) was 20.8 pg. It also gave an MCHC ([…], time 7 day) of 33%, an MCV ([…], time 7 day) of 63.1 fL and a Mono ([…], time 7 day) of 2.2%. For the same molecule, the Neu ([…], time 7 day) was 19.2%, the PT ([…], time 7 day) was 14.1 s and the Plat ([…], time 7 day) was 110 x10_4/uL. It also gave an RBC ([…], time 7 day) of 650.4 x10_4/ul, a Ret ([…], time 7 day) of 5.7% and a WBC ([…], time 7 day) of 82.7 x10_2/uL. The APTT ([…], time 14 day) was 16.1 s, the Bas ([…], time 14 day) was 0.2% and the Eos ([…], time 14 day) was 0.4%. The Fbg ([…], time 14 day) was 365 mg/dL, the Hb ([…], time 14 day) was 14 g/dL and the Ht ([…], time 14 day) was 42.2%. It also gave a Lym ([…], time 14 day) of 73.6%, an MCH ([…], time 14 day) of 20.3 pg and an MCHC ([…], time 14 day) of 33.1%. It also gave an MCV ([…], time 14 day) of 61.3 fL, a Mono ([…], time 14 day) of 3.4% and a Neu ([…], time 14 day) of 19.8%. The PT ([…], time 14 day) was 14.4 s, the Plat ([…], time 14 day) was 118 x10_4/uL and the RBC ([…], time 14 day) was 687.8 x10_4/ul. The Ret ([…], time 14 day) was 4.6%, the WBC ([…], time 14 day) was 91.1 x10_2/uL and the APTT ([…], time 28 day) was 18.2 s. The Bas ([…], time 28 day) was 0%, the Eos ([…], time 28 day) was 1% and the Fbg ([…], time 28 day) was 267.8 mg/dL. The Hb ([…], time 28 day) was 15.2 g/dL, the Ht ([…], time 28 day) was 45.1% and the Lym ([…], time 28 day) was 78.8%. For the same molecule, the MCH ([…], time 28 day) was 18.9 pg, the MCHC ([…], time 28 day) was 33.8% and the MCV ([…], time 28 day) was 56 fL. It also gave a Mono ([…], time 28 day) of 2.2%, a Neu ([…], time 28 day) of 17.4% and a PT ([…], time 28 day) of 15.2 s. For the same molecule, the Plat ([…], time 28 day) was 106.7 x10_4/uL, the RBC ([…], time 28 day) was 806.2 x10_4/ul and the Ret ([…], time 28 day) was 2.2%. For the same molecule, the WBC ([…], time 28 day) was 92.2 x10_2/uL, the KIDNEY_L ([…], time 7 day) was 1.1 g and the KIDNEY_R ([…], time 7 day) was 1.1 g. For the same molecule, the KIDNEY_TOTAL ([…], time 7 day) was 2.2 g, the KIDNEY_L ([…], time 14 day) was 1.3 g and the KIDNEY_R ([…], time 14 day) was 1.2 g. For the same molecule, the KIDNEY_TOTAL ([…], time 14 day) was 2.5 g, the KIDNEY_L ([…], time 28 day) was 1.5 g and the KIDNEY_R ([…], time 28 day) was 1.4 g. For the same molecule, the KIDNEY_TOTAL ([…], time 28 day) was 2.9 g, the LIVER ([…], time 7 day) was 12.1 g and the LIVER ([…], time 14 day) was 14.6 g. The LIVER ([…], time 28 day) was 16.2 g, the A/G ([…], time 7 day) was 0.8 and the ALP ([…], time 7 day) was 1451.2 IU/L. For the same molecule, the ALT ([…], time 7 day) was 40.6 IU/L, the AST ([…], time 7 day) was 64.4 IU/L and the BUN ([…], time 7 day) was 15.8 mg/dL. For the same molecule, the CRE ([…], time 7 day) was 0.2 mg/dL, the Ca ([…], time 7 day) was 11.4 mg/dL and the Cl ([…], time 7 day) was 105.8 meq/L. The DBIL ([…], time 7 day) was 0.012 mg/dL, the GLC ([…], time 7 day) was 194.4 mg/dL and the IP ([…], time 7 day) was 7.6 mg/dL. It also gave a K ([…], time 7 day) of 4.2 meq/L, an LDH ([…], time 7 day) of 96.6 IU/L and a Na ([…], time 7 day) of 142.6 meq/L. For the same molecule, the PL ([…], time 7 day) was 158.4 mg/dL, the RALB ([…], time 7 day) was 2.6 g/dL and the TBIL ([…], time 7 day) was 0.028 mg/dL. It also gave a TC ([…], time 7 day) of 84.8 mg/dL, a TG ([…], time 7 day) of 98 mg/dL and a TP ([…], time 7 day) of 5.8 g/dL. The gamma-GTP ([…], time 7 day) was 1 IU/L, the A/G ([…], time 14 day) was 0.8 and the ALP ([…], time 14 day) was 1493.6 IU/L. It also gave an ALT ([…], time 14 day) of 41.6 IU/L, an AST ([…], time 14 day) of 64 IU/L and a BUN ([…], time 14 day) of 15.8 mg/dL. For the same molecule, the CRE ([…], time 14 day) was 0.2 mg/dL, the Ca ([…], time 14 day) was 11.2 mg/dL and the Cl ([…], time 14 day) was 105.4 meq/L. It also gave a DBIL ([…], time 14 day) of 0.016 mg/dL, a GLC ([…], time 14 day) of 199.6 mg/dL and an IP ([…], time 14 day) of 7.8 mg/dL. The K ([…], time 14 day) was 4 meq/L, the LDH ([…], time 14 day) was 103 IU/L and the Na ([…], time 14 day) was 144 meq/L. It also gave a PL ([…], time 14 day) of 152.2 mg/dL, an RALB ([…], time 14 day) of 2.8 g/dL and a TBIL ([…], time 14 day) of 0.034 mg/dL. The TC ([…], time 14 day) was 78.2 mg/dL, the TG ([…], time 14 day) was 116.2 mg/dL and the TP ([…], time 14 day) was 6 g/dL. For the same molecule, the gamma-GTP ([…], time 14 day) was 1 IU/L, the A/G ([…], time 28 day) was 0.8 and the ALP ([…], time 28 day) was 1476.8 IU/L. The ALT ([…], time 28 day) was 39 IU/L, the AST ([…], time 28 day) was 67 IU/L and the BUN ([…], time 28 day) was 16.8 mg/dL. It also gave a CRE ([…], time 28 day) of 0.2 mg/dL, a Ca ([…], time 28 day) of 10.5 mg/dL and a Cl ([…], time 28 day) of 107.2 meq/L. For the same molecule, the DBIL ([…], time 28 day) was 0.016 mg/dL, the GLC ([…], time 28 day) was 193.4 mg/dL and the IP ([…], time 28 day) was 6.2 mg/dL. It also gave a K ([…], time 28 day) of 4.1 meq/L, an LDH ([…], time 28 day) of 87.2 IU/L and a Na ([…], time 28 day) of 144.2 meq/L. For the same molecule, the PL ([…], time 28 day) was 141 mg/dL, the RALB ([…], time 28 day) was 2.7 g/dL and the TBIL ([…], time 28 day) was 0.03 mg/dL. The TC ([…], time 28 day) was 65.6 mg/dL, the TG ([…], time 28 day) was 136.6 mg/dL and the TP ([…], time 28 day) was 6 g/dL. The gamma-GTP ([…], time 28 day) was 1 IU/L.
